The nature of series [1]: Half life in C57BL/6 mouse at 2 mg/kg, po or 1 mg/kg, iv by LC-MS/MS analysis. Type of series: ADME, organism-based. The settings on record: in vivo.
The nature of series [2]: Oral bioavailability in C57BL/6 mouse at 2 mg/kg by LC-MS/MS analysis. It is filed as ADME, organism-based. Particulars: in vivo.
The test system of series [3] is Mus musculus. In words: Antiinflammatory activity in C57Bl/6 mouse assessed as inhibition of FK156-induced serum KC level at 0.1 to 100 mg/kg, po for 15 mins prior to FK156-challenge measured after 2.5 hrs by FACS analysis. It is filed as functional, organism-based. (In general: In flow cytometry, cells or beads pass a laser one at a time.)
Series [4] relates to Mus musculus. The series is described as follows: Antiinflammatory activity in C57Bl/6 mouse assessed as inhibition of LPS-induced serum KC level at 10 mg/kg, po for 15 mins prior to LPS-challenge measured after 2.5 hrs. Type of series: functional, organism-based.
Series [5] relates to Intestinal mucosa. In words: Inhibition of TNFalpha production in intestinal mucosa derived from Crohn's disease patient measured after 24 hrs by sandwich ELISA. It is filed as functional, tissue-based. The settings on record: Homo sapiens. Background: In an ELISA, binding on a coated surface is turned into a signal by an enzyme label.
Series [6] concerns Intestinal mucosa. The series is described as follows: Inhibition of IL6 production in intestinal mucosa derived from Crohn's disease patient measured after 24 hrs by sandwich ELISA. Type of series: functional, tissue-based. The settings on record: Homo sapiens.
The subject of series [7] is Intestinal mucosa. The series is described as follows: Inhibition of TNFalpha production in intestinal mucosa derived from ulcerative colitis patient measured after 24 hrs by sandwich ELISA. Type of series: functional, tissue-based. The settings on record: Homo sapiens.
Series [8] concerns Intestinal mucosa. In words: Inhibition of IL6 production in intestinal mucosa derived from ulcerative colitis patient measured after 24 hrs by sandwich ELISA. Type of series: functional, tissue-based. The settings on record: Homo sapiens.
The test system of series [9] is Mus musculus. The series is described as follows: Antiinflammatory activity in Balb/c mouse model of L18-MDP-induced inflammatory peritonitis assessed as inhibition of serum KC level into peritoneal cavity administered orally for 15 mins prior to L18-MDP-challenge measured after 4 hrs. It is filed as functional, organism-based.
The nature of series [10]: Cmax in Sprague-Dawley rat at 2 mg/kg, po administered through cassette dosing as by LC-MS/MS analysis. Type of series: ADME, organism-based. Also on record: dose 2 mg/kg, route oral. The settings on record: in vivo.
Series [11] can be described thus: AUC in Sprague-Dawley rat at 2 mg/kg, po administered through cassette dosing by LC-MS/MS analysis. Type of series: ADME, organism-based. The settings on record: in vivo.
The target of series [12] is T1, Aurora kinase A (Homo sapiens) (UniProt O14965).
T1 sequence (whole entry): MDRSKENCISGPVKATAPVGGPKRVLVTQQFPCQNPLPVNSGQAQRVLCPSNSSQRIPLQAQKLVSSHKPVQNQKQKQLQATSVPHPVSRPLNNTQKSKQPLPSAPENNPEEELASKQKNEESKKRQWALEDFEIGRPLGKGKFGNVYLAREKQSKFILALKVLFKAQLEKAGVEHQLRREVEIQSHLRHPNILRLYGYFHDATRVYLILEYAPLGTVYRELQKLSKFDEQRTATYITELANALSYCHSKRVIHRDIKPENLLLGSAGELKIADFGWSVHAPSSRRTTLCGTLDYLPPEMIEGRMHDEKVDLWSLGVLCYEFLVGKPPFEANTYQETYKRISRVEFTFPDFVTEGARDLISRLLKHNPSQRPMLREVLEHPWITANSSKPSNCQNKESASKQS
In words: Inhibition of human full length N-terminal GST-tagged aurora-a expressed in baculovirus expression system at 1 uM.

Series [13] has as its target Receptor-interacting serine/threonine-protein kinase 3 (Homo sapiens, UniProt Q9Y572). The series is described as follows: Inhibition of RIPK3 (unknown origin) in HEK-293 cells assessed as necroptic cell death at 10 uM by cell-based assay. Particulars: HEK293.
Series [14] addresses T2, Nucleotide-binding oligomerization domain-containing protein 1 (Homo sapiens) (UniProt Q9Y239).
T2 sequence (whole entry): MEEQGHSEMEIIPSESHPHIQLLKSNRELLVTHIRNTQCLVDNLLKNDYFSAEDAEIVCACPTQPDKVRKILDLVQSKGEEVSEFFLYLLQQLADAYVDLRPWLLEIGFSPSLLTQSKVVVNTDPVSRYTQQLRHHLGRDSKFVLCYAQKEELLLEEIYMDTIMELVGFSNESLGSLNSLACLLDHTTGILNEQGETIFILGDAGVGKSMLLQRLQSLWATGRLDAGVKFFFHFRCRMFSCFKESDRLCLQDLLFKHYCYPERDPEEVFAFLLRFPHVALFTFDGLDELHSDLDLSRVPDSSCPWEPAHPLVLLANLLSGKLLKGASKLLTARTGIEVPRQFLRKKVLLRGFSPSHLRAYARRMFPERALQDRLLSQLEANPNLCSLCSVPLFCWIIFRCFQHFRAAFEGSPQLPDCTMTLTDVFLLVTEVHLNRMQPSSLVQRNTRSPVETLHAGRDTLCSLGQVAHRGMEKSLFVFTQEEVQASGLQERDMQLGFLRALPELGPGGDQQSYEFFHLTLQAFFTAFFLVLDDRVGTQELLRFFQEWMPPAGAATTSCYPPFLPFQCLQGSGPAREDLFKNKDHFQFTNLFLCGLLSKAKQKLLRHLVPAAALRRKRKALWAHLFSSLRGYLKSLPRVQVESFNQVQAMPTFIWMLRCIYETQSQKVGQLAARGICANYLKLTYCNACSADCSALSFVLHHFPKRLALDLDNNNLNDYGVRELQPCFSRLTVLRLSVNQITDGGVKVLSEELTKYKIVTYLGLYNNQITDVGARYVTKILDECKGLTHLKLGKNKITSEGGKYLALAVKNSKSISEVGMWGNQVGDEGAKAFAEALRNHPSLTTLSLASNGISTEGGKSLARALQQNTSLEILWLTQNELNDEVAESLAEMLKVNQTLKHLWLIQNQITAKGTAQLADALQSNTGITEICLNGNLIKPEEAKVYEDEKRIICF
In words: Activation of NOD1 in human monocytes assessed as inhibition of ieDAP-stimulated IL8 production preincubated for 30 mins prior to ieDAP stimulation at 1 uM measured after 6 hrs by immunoassay. It is filed as cell-based.

Series [15] addresses Nucleotide-binding oligomerization domain-containing protein 2 (Homo sapiens) (UniProt Q9HC29). In words: Activation of NOD2 in human monocytes assessed as inhibition of MDP-stimulated TNF-alpha production preincubated for 30 mins prior to MDP stimulation measured after 6 hrs by immunoassay. It is filed as cell-based.
The target in series [16] is Toll-like receptor 2 (Homo sapiens) (UniProt O60603). The series is described as follows: Activation of TLR2 receptor in human monocytes assessed as inhibition of Pam2Csk4-stimulated TNF-alpha production preincubated for 30 mins prior to Pam2Csk4 stimulation at 1 uM measured after 6 hrs by immunoassay. It is filed as cell-based.
Chain of Toll-like receptor 2 (Homo sapiens) (O60603 whole entry): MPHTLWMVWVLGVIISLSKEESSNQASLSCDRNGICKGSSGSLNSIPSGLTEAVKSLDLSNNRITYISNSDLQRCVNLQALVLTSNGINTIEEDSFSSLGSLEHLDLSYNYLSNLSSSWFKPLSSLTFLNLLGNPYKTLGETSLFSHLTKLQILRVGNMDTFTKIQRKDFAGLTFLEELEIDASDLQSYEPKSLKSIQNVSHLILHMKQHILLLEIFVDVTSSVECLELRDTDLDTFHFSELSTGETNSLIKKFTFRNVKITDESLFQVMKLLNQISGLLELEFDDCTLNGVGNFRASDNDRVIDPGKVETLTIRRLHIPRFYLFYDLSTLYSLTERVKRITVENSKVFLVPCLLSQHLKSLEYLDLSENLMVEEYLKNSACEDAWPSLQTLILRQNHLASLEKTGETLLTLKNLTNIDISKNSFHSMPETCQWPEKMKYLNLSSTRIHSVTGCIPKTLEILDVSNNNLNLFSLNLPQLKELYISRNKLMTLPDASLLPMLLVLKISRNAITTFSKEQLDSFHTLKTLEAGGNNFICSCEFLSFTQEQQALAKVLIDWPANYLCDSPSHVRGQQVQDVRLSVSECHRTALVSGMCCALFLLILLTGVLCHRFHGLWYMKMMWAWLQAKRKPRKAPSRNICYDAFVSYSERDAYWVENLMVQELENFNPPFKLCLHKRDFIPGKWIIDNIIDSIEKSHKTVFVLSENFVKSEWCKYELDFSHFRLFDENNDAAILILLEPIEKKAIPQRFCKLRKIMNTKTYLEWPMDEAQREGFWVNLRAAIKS
Series [17] addresses Toll-like receptor 4 (Homo sapiens) (UniProt O00206). In words: Activation of TLR4 receptor in human monocytes assessed as inhibition of LPS-stimulated TNF-alpha production preincubated for 30 mins prior to LPS stimulation at 1 uM measured after 6 hrs by immunoassay. It is filed as cell-based.
The species entered for another series is Homo sapiens. In words: Activation of TFNR in human monocytes assessed as inhibition of TNF-alpha-stimulated IL8 production preincubated for 30 mins prior to TNF-alpha stimulation at 1 uM measured after 6 hrs by immunoassay. It is filed as cell-based.
Series [18] can be described thus: Clearance in Sprague-Dawley rat at 2 mg/kg, po or 1 mg/kg, iv by LC-MS/MS analysis. Type of series: ADME, organism-based. Particulars: in vivo.
Series [19] is described as follows: Half life in Sprague-Dawley rat at 2 mg/kg, po and 1 mg/kg, iv by LC-MS/MS analysis. It is filed as ADME, organism-based. The settings on record: in vivo.
Series [20] can be described thus: Fraction unbound in Sprague-Dawley rat blood at 2 mg/kg, po or 1 mg/kg, iv. It is filed as ADME, organism-based. The settings on record: whole blood.
For series [21], the target named is Vascular endothelial growth factor receptor 2 (Homo sapiens, UniProt P35968).
Chain of Vascular endothelial growth factor receptor 2 (P35968 whole entry): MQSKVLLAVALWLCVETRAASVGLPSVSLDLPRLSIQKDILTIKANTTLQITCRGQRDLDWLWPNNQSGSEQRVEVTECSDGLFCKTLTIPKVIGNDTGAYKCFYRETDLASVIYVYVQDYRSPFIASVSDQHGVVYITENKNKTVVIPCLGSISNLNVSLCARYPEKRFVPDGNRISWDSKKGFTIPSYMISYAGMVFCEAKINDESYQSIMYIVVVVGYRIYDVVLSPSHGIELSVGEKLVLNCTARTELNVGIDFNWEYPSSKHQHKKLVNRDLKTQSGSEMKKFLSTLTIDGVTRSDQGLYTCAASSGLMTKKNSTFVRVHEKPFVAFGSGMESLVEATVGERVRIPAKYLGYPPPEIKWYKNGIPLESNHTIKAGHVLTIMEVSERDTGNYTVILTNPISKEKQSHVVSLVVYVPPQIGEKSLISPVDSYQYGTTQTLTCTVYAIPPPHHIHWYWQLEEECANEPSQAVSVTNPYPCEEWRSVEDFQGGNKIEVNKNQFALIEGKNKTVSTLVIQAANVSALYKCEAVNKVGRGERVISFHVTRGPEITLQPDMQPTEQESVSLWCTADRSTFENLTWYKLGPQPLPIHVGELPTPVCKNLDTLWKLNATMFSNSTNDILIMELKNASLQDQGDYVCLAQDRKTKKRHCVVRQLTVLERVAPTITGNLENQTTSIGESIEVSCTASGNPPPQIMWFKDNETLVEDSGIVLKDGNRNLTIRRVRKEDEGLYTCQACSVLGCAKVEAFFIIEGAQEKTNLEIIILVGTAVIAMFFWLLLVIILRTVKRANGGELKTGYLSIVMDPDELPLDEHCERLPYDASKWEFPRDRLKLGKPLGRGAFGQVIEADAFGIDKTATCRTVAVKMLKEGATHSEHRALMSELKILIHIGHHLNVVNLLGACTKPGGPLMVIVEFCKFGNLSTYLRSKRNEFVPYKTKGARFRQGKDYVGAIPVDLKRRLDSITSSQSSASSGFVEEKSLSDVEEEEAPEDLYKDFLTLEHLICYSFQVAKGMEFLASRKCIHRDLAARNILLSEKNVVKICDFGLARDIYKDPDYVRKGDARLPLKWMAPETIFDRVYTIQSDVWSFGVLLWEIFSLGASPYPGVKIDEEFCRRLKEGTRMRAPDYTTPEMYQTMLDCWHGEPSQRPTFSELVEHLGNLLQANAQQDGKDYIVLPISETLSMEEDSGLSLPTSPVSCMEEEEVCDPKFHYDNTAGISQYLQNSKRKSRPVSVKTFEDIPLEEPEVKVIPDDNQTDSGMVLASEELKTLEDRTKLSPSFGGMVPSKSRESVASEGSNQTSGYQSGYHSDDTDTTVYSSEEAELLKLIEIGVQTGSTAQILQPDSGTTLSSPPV

This is an account of results in ChEMBL document CHEMBL3822396 (J Med Chem, 2016).

Calls of active or inactive are those of the source. The rule behind the calls is not given here. A value given as a limit tells only on which side of the number the result lay.

Chain of Nucleotide-binding oligomerization domain-containing protein 2 (Homo sapiens) (Q9HC29 whole entry, the tested form may be a part): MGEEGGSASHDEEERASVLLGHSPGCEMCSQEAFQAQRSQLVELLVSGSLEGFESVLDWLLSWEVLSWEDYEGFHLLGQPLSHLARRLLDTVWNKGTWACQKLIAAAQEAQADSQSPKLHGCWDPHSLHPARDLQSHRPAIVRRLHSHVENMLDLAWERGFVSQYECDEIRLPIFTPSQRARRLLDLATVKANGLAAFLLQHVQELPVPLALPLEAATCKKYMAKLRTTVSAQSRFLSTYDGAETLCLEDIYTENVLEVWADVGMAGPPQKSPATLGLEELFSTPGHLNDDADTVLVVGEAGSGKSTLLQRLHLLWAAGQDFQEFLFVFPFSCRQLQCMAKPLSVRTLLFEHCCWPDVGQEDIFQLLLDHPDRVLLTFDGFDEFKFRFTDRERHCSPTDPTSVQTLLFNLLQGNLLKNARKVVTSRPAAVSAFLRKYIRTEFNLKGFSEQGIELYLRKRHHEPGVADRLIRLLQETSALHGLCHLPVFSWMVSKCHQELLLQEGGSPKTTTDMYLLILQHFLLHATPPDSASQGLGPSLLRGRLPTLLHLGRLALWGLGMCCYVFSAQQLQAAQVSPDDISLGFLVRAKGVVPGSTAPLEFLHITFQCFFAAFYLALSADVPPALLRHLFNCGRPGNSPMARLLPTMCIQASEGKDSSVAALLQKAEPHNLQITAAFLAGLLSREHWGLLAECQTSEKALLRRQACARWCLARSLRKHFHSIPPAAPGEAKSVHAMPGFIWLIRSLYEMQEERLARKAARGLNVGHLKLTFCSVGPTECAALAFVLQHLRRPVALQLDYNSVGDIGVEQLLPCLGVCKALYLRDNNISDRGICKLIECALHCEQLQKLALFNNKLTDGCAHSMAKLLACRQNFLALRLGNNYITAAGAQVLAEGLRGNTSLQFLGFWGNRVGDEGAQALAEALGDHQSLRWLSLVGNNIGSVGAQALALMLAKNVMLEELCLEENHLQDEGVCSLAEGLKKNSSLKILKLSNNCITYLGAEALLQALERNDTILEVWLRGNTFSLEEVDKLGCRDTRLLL
Chain of Receptor-interacting serine/threonine-protein kinase 3 (Q9Y572 whole entry, looked up, the tested form may be a part): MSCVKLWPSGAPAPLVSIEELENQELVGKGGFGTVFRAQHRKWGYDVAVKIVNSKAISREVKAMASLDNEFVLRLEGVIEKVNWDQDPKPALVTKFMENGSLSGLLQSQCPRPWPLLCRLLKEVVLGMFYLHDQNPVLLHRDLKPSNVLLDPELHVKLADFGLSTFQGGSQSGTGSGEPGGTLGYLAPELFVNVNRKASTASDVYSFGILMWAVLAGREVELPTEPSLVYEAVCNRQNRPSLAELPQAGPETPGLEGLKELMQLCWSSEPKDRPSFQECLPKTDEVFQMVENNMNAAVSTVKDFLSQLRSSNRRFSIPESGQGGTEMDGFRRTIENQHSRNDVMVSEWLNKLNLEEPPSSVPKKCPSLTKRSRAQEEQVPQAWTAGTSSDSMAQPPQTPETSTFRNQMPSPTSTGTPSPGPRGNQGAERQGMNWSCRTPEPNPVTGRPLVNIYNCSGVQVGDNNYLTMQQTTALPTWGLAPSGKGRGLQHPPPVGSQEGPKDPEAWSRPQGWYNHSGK
Chain of Toll-like receptor 4 (Homo sapiens) (O00206 whole entry): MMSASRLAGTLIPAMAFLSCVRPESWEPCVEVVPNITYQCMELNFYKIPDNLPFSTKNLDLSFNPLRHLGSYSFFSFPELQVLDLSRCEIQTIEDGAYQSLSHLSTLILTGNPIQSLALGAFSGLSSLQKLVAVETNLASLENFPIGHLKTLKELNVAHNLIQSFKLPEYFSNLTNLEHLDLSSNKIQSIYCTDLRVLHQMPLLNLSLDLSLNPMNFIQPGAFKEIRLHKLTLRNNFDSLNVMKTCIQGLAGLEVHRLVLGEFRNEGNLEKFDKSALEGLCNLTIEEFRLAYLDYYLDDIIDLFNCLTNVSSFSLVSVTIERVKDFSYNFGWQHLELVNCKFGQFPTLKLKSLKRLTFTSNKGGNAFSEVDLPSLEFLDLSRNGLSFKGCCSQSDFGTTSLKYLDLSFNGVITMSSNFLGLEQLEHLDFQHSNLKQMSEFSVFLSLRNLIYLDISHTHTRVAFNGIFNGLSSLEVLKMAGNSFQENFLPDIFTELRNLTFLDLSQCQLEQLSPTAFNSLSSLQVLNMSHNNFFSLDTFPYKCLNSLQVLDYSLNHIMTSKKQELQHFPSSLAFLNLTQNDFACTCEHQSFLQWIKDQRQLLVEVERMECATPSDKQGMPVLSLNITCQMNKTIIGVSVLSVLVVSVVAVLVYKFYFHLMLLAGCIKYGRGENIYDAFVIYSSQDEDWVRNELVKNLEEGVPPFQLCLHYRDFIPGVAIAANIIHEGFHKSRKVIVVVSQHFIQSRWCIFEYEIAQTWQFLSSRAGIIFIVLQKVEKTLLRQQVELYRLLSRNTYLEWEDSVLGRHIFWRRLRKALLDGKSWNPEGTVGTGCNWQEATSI

For `CC(C)(C)S(=O)(=O)c1ccc2nccc(Nc3n[nH]c4ccc(F)cc34)c2c1`, the values for the half-life in [1] and in series [19] were 126 min and 186 min, respectively. Further, the bioavailability (usually dose-corrected exposure relative to a reference, in per cent) in series [2] worked out at 34%. Also, the inhibition entry (in the series with Mus musculus [3]; in [14]; in series [15]; in [16]; in [17]; in the series filed under Homo sapiens) was “Active” throughout. Further, the inhibition entry (with Mus musculus [4]; in [13]) was “inactive” throughout. The inhibition (commonly how much of the control response was suppressed) is “Dose-dependent effect” in the series on Intestinal mucosa [5]; “Dose-dependent effect” in the series with Intestinal mucosa [6]; “Dose-dependent effect” with Intestinal mucosa [7]; “Dose-dependent effect” with Intestinal mucosa [8]; 30% in series [12]. In addition, the Activity entry with Mus musculus [9] was “Dose-dependent effect”. Moreover, the Cmax (as a rule, the maximum level reached in the sampled fluid or tissue) in [10] turned out to be 260 ng/mL. Moreover, the AUC (as a rule, the area under the concentration-time curve, a measure of exposure) in [11] came to 980 ng·h/mL. Further, the clearance in series [18] came to 15 mL/min/kg. Further, in series [20], the fraction unbound (usually free concentration divided by total concentration) stood at 0.026. Further, the IC50 (in general, the concentration needed to halve the response being measured) in series [21] was more than 5 µM.
